Test results taken from patent publication US8883856B2, “Compositions and methods for the treatment of inflammatory diseases using topoisomerase inhibitors” (priority 2000, dated 2014).
Where two headings read alike, the source gives them in different places.

Legend:
[1] = Encapsulation efficiency of drug in polymer microspheres; assay type: physicochemical
Protocol: Camptothecin (Sigma) was dissolved in a 5% (w/v) solution of poly(L-lactic acid) (2K molecular weight, Polysciences) in various ratios of drug to polymer (from 0.5:100 to 8:100 (w/w). Ten ml of each of these solutions were pipetted into 100 ml of a 2.5% (w/v) solution of poly vinyl alcohol (PVA, mol wt 13-21K Aldrich) with over head stirring at 500 rpm. After two hours stirring the PVA/microsphere suspension was poured through 90 um then 50 um sieves to collect the 50-90 um fraction of microspheres. These spheres were then washed in distilled water three times and dried under vacuum. The dried spheres were obtained in high yields (over 50% of the initial polymer was recovered as microspheres in the 50-90 um size range). […] Encapsulation efficiency was measured by dissolving microspheres in 1 ml of dichlomethane, extracting the drug into a 60/40 (v/v) acetonitrile water mixture and analysis by visible absorbance at 370 nm. The encapsulation efficiency of the drug in the polymer varied with the initial ratio of drug to polymer with high ratios resulting in a high level of encapsulation.
Plumbagin (Sigma) was dissolved in a 5% (w/v) solution of poly (L-lactic acid) (2K molecular weight, Polysciences) to give a final ratio of drug to polymer of 1:10 (w/w). Ten ml of this solution was pipetted into 100 ml of a 2.5% (w/v) solution of poly vinyl alcohol (PVA, mol wt 13-21K Aldrich) with over head stirring at 500 rpm. After two hours stirring the PVA/microsphere suspension was poured through 90 um then 50 um sieves to collect the 50-90 um fraction of microspheres. These spheres were then washed in distilled water three times and dried under vacuum. The dried spheres were obtained in high yields with over 50% of the initial polymer being recovered in microspheres in the 50-90 um size range. The microspheres were dense yellow in colour indicating high encapsulation efficiency of the drug plumbagin. The encapsulation efficiency was measured by dissolving the microspheres in 1 ml of dichlomethane, extracting the drug into a 60/40 (v/v) acetonitrile water mixture and analysis by visible absorbance at 420 nm. The encapsulation efficiency of the drug in the polymer was 80%.
(§1) Ten ml of each solution was pipetted into 100 ml of a 2.5% (w/v) solution of poly vinyl alcohol (PVA, mol wt 13-21K Aldrich) with over head stirring at 500 rpm. After two hours stirring the PVA/microsphere suspension was poured through 90 um then 50 um sieves to collect the 50-90 um fraction of microspheres. These spheres were then washed in distilled water three times and dried under vacuum. The dried spheres were obtained in high yields (over 50% of the initial polymer was recovered as microspheres in the 50-90 um size range).
as §1, with “vacuum.” for “vacuum. The dried spheres were obtained in high yields (over 50% of the initial polymer was recovered as microspheres in the 50-90 um size range).”

rat carotid artery = assay type: in vivo; conditions: for inhibition of luminal narrowing / inhibition of intimal hyperplasia: perivascular
From the text: In this model of restenosis, a balloon catheter is used to induce damage to the lumen of carotid arteries in rats. This damage causes extensive intimal hyperplasia and luminal narrowing, characteristic of restenosis. To determine the effect of drugs as antirestenosis agents, a polymeric dosage form of a drug is applied to the outside of the artery (perivascular application).
Wistar rats weighing 400 g to 500 g were anesthetized with halothane. A vertical incision was made over the trachea and the left carotid artery was exposed. Two ligatures were placed around the external carotid artery and an arteriotomy was made between them. A 2 French Fogarty balloon catheter was introduced into the external carotid artery and pushed into the left common carotid artery and the balloon was inflated with saline. The catheter was passed up and down the entire length of the carotid artery three times to stretch the vessel and denude the endothelium. The catheter was removed and the ligatures were tied off on the external carotid artery. […] The wound was then closed and the animals recovered. After 14 days, the rats were sacrificed and pressure perfused at 100 mmHg with 10% buffered formaldehyde. Both carotid arteries were harvested and processed for histology. Serial cross-sections were cut every 2 mm within and outside the implant in the injured left carotid artery and at corresponding levels in the control right carotid artery. Sections were stained with hematoxylin-and-eosin and Movat's stains and digitized for computer assisted morphometric analysis to quantify luminal narrowing and intimal hyperplasia.

[2] = Example 19 microspheres 50-90 um, drug to polymer 1:40 (beta-lapachone) or 1:100 (etoposide, doxorubicin)
[3] = polycaprolactone microspheres 50-90 um, drug to polymer 1:50

CC1(C)CCC2=C(O1)c1ccccc1C(=O)C2=O [beta-lapachone]
encapsulation efficiency of the drug in the polymer [1, 2]: 97%

CC[C@@]1(O)C(=O)OCc2c1cc1n(c2=O)Cc2cc3ccccc3nc2-1 [camptothecin]
inhibition of luminal narrowing (rat carotid artery; 0.2% (w/w to EVA) film): more than 50% | inhibition of intimal hyperplasia (rat carotid artery; 0.2%, 1% and 10% loaded EVA films, 14 days): partial inhibition | inhibition of intimal hyperplasia (rat carotid artery; 20% loaded EVA film, 14 days): Complete inhibition | luminal narrowing (rat carotid artery; all concentrations above 0.2% in EVA film): reduced the luminal narrowing to almost zero

COc1cccc2c1C(=O)c1c(O)c3c(c(O)c1C2=O)C[C@@](O)(C(=O)CO)C[C@@H]3O[C@H]1C[C@H](N)[C@H](O)[C@H](C)O1 [doxorubicin]
encapsulation efficiency of the drug in the polymer [1, 2]: 95% | inhibition of intimal hyperplasia (rat carotid artery; 2% loading (w/w to EVA) film): completely inhibited | inhibition of luminal narrowing (rat carotid artery; 2% loading (w/w to EVA) film): completely inhibited | necrosis or toxicity after perivascular application (rat carotid artery; rat, in vivo): did not induce any necrosis or toxicity in surrounding tissue

COc1cc([C@@H]2c3cc4c(cc3[C@@H](O[C@@H]3O[C@@H]5CO[C@@H](C)O[C@H]5[C@H](O)[C@H]3O)[C@H]3COC(=O)[C@H]23)OCO4)cc(OC)c1O [etoposide]
inhibition of intimal hyperplasia (rat carotid artery; both 1% and 5% loaded EVA films): approximately 75% | necrosis or toxicity after perivascular application (rat carotid artery; rat, in vivo): did not induce any necrosis or toxicity in surrounding tissue

CC1=CC(=O)c2ccccc2C1=O [menadione]
encapsulation efficiency of the drug in the polymer [1, 3]: 73%

CC1=CC(=O)c2c(O)cccc2C1=O [plumbagin]
encapsulation efficiency of the drug in the polymer ([1]; poly(L-lactic acid) 2K microspheres 50-90 um, drug to polymer 1:10): 80% | encapsulation efficiency of the drug in the polymer [1, 3]: 85% | necrosis or toxicity after perivascular application (rat carotid artery; applied to the perivascular side of the rat carotid artery): excessive toxicities
